Results reported in patent publication US7754694B2, “Pyrrolo[2, 1-C][1, 4]benzodiazepine-glycoside prodrug useful as a selective anti tumor agent” (priority 2007, dated 2010).

Key:
HepG2 cells = experiment: Cell cycle progression by FACS (subG1 and G2/M population) in HepG2 cells; type: cell-based, human
Source text: (§1) The cytotoxic effects of the newly synthesized compounds 1a and 1b and their respective PBD imines were examined by cell cycle progression experiments on human tumor cells, by using fluorescence-activated cell sorting (FACS) analysis, in the absence and in the presence of β-galactosidase enzyme. In the primary flow cytometric study, the DNA content of the cells was used as a major determinant for cell count. The subG1 population, a conspicuous indicator for cell death, presumably apoptosis, and G2/M population was also determined in HepG2 and A375 cell lines.
Next we evaluated the prodrugs for their activation efficiency by intracellular β-galactosidase, in human liver cancer, HepG2 cells.

E. coli β-galactosidase = E. coli β-galactosidase (Escherichia coli, UniProt P00722); type: biochemical; settings: in the presence of β-galactosidase, 60-90 minutes, 37° C., pH 7.2 (phosphate buffer)
Method: FIG. 1. A drawing illustrating the effect of the prodrug 1a 1 μmole was treated with 2 units of E. coli β galactosidase enzyme and the progress of the hydrolysis was monitored by reverse phase HPLC. HPLC conditions: C18 Reverse phase column. Mobile phase 40:60 CH3CN/ H2O, flow rate of 1 ml/ min. UV detection: wave length 254 nm.
The prodrug 1a 1 μmole was treated with 2 units of E. coli β galactosidase enzyme and the progress of the hydrolysis was monitored by reverse phase HPLC. The results are presented in the form of a graph as illustrated in FIG. 1. Biological Studies Of The Prodrugs

A375 cells = experiment: Cell cycle progression by FACS (subG1 and G2/M population) in A375 cells; type: cell-based, human; settings: 1a 42 μM, 1b 23.4 μM
Source text: as §1

Sequence of E. coli β-galactosidase (P00722 2-1024): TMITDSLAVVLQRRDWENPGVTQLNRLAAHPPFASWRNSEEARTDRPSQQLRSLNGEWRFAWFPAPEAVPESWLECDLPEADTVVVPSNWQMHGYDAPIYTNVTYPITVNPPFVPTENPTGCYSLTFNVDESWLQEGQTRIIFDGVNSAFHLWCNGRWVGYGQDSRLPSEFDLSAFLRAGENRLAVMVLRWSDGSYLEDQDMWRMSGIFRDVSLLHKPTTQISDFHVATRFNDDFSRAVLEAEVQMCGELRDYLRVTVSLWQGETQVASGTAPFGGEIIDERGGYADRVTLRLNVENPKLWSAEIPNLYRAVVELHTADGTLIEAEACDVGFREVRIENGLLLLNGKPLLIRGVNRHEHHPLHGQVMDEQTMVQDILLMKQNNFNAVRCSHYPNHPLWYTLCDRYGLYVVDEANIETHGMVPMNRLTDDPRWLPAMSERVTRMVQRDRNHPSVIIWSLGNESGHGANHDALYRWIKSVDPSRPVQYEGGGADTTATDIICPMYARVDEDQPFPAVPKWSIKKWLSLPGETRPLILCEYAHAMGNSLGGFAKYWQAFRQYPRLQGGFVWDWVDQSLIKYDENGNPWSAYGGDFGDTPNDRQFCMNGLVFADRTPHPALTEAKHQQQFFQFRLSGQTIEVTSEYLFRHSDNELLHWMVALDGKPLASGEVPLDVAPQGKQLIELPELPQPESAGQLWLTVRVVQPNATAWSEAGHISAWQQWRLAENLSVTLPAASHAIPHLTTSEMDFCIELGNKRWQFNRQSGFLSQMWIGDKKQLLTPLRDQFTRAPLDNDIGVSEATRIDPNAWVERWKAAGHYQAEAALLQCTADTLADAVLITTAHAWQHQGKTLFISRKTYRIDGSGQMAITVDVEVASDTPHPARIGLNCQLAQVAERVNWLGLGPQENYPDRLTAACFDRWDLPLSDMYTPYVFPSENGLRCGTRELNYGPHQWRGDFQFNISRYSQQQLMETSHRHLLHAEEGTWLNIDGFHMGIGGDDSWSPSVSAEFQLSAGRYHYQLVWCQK

## COc1cc2c(cc1OCCCOc1cc3c(cc1OC)C(=O)N1CCC[C@H]1[C@H](O)N3C(=O)OCc1ccc(O[C@@H]3O[C@H](CO)[C@H](O)[C@H](O)[C@H]3O)c([N+](=O)[O-])c1)N(C(=O)OCc1ccc(O[C@@H]3O[C@H](CO)[C@H](O)[C@H](O)[C@H]3O)c([N+](=O)[O-])c1)[C@@H](O)[C@@H]1CCCN1C2=O [Compound 1b, 1,1′-[[(propane-1,3-diyl)dioxy]-bis(11S,11aS)-10-(4-β-D -galactopyranosyloxy-3-nitrophenyl)methoxycarbonyl-11-hydroxy-7-methoxy-1,2,3,-10,11,11a-hexahydro-5H-pyrrolo[2,1-c][1,4]-benzodiazepin-5-one]]
HepG2 cells; HepG2, with added E. coli β-galactosidase
  cytometric profile / apoptotic response in HepG2 cells in the presence of E. coli β-galactosidase: profile comparable to that of the parent drug 6b
HepG2 cells; HepG2, without added enzyme (intracellular β-galactosidase)
  cytometric profile / apoptotic response in HepG2 cells in the absence of E. coli β-galactosidase: block in the G2/M phase of the cell cycle
E. coli β-galactosidase
  activation of the prodrug by β-galactosidase: activated to their corresponding carbinolamines
A375 cells; A375, with E. coli β-galactosidase
  apoptosis / cell death in A375 cells with E. coli β-galactosidase: apoptosis identical to that of the parent drugs 6a and 6b respectively
A375 cells; A375, without β-galactosidase
  amount of cell death in A375 cells in the absence of the enzyme: insignificant
